# BindingDB's records for doi:10.7270/Q23N21VG (Nmmlsc, 2009)
# Biological target: T1, GTPase KRas [1-37] (Homo sapiens, UniProt G3V5T7)
# T1 construct: 1-37
# Assay: activated mutant Ras nucleotide binding blockade – biochemical, additional analogs, multiplex flow cytometry, Ki, SAR follow-up (AID 2043)
# T1 sequence (G3V5T7 whole entry): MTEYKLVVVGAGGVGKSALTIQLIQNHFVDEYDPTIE
row,Structure (SMILES),EC50 [µM]
1,O=C1N=c2c(Br)cccc2=C1c1[nH]c2ccccc2c1NO [7-bromanyl-3-[3-(oxidanylamino)-1H-indol-2-yl]indol-2-one],> 30
2,O=C1N=c2ccccc2=C1c1[nH]c2ccccc2c1NO [3-[3-(hydroxyamino)-1H-indol-2-yl]-2-indolone],> 30
3,O=C1Nc2c(Cl)cccc2C1=C1Nc2ccccc2C1=O,> 30
4,O=C1Nc2ccc(Br)cc2C1=C1Nc2ccccc2C1=O,> 30
5,O=C1N=c2ccc(Br)cc2=C1c1[nH]c2ccccc2c1NO [5-bromanyl-3-[3-(oxidanylamino)-1H-indol-2-yl]indol-2-one],> 30
6,"O=C1Nc2ccccc2/C1=C1/Nc2ccccc2C1=O [2-[(3Z)-2-oxo-2,3-dihydro-1H-indol-3-ylidene]-2,3-dihydro-1H-indol-3-one]",> 30
7,O=C1NC(=S)N/C1=C1\C(=O)Nc2ccccc21 [(3Z)-3-(5-oxo-2-sulfanylideneimidazolidin-4-ylidene)-1H-indol-2-one],> 30
8,O=C1N=c2c(Cl)cccc2=C1c1[nH]c2ccccc2c1NO [7-chloro-3-[3-(hydroxyamino)-1H-indol-2-yl]-2-indolone],> 30
9,O=C1NC(=O)/C(=C2/C(=O)Nc3ccccc32)N1,> 30
10,O=C1Nc2c(Br)cccc2C1=C1Nc2ccccc2C1=O,> 30
11,O=C1Nc2c(F)cccc2C1=C1Nc2ccccc2C1=O,> 30
12,O=C1N=c2c(F)cccc2=C1c1[nH]c2ccccc2c1NO [7-fluoro-3-[3-(hydroxyamino)-1H-indol-2-yl]-2-indolone],> 30
